Patent EP4752152A1, “STEROID COMPOUND, AND PREPARATION METHOD THEREFOR AND USE THEREOF” (Cholesgen (Shanghai) Co.Ltd., priority 2023, dated 2025)
Values after ≈ are worked out from the molar mass of the structure shown.

Tests used:
[1] = Solubility in fasted-state simulated intestinal fluid (FaSSIF); assay type: physicochemical; details: FaSSIF, pH 6.5, fassif, kinetic from dmso stock, FaSSIF pH 6.5, 300 µM sample solution, room temperature
How it was run: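 Compound from 10.0 mM DMSO stock added to FaSSIF (phosphate/NaCl buffer, pH 6.5) at 300 µM nominal, shaken 1 h at room temperature, 1000 rpm. After centrifugation, supernatant concentration quantified by LC-MS/MS.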

[2] = test system: SREBP pathway; assay: SREBP luciferase reporter gene system (SRE-luciferase assay); assay type: cell-based, human; details: Homo sapiens, Huh-7, 16 h, Huh-7/SRE-luc cells, sterol-deficient medium, 0.01-10 µM
How it was run: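 Readout was SRE-driven luciferase normalised to GFP fluorescence in lysates of stably transfected Huh-7/SRE-luc hepatoma cells. Compounds (0.01, 0.03, 0.1, 0.3, 1.0, 3.0, 10 µM; DMSO control) were applied for 16 h in sterol-depleted medium with 2 µM lovastatin and 10 µM mevalonate; IC50 from variable-slope fit.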

[3] = Metabolic stability experiment of mouse liver microsomes; assay type: in vitro ADME
[4] = test system: Fatty Acid Synthase (FASN) gene; assay: Inhibition of FASN gene expression (qPCR) in Huh-7 cells; assay type: cell-based, human; details: Homo sapiens, Huh-7, 16 h, Huh-7 cells, starvation medium, 16 hours, qPCR; class symbols; read-out: FASN IC50
How it was run: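 IC50 derived by four-parameter fit of FASN expression inhibition versus DMSO, measured by RT-qPCR. Compound exposure lasted 16 h at five 3-fold concentrations from 3000 nM, applied to Huh-7 cells in sterol-depleting medium with 5% LPDS, 2 µM lovastatin and 10 µM mevalonate.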

SMILES | solubility at 1 h [1] [µM] | IC50 [2] [µM] | half-life at 1 µM [3] [h] | IC50 [4] [nM]
COc1ncccc1C(O)CCC[C@@H](C)[C@H]1CC[C@H]2[C@H]3[C@H](CC[C@]12C)[C@@]1(C)CC[C@H](O)[C@H](O)[C@@H]1CC3(F)F (stereo partly drawn) [Compound 81, (1R,3aS,3bS,5aR,6R,7S,9aR,9bS,11aR)-4,4-difluoro-1-[(2R)-6-(2-methoxypyridin-3-yl)-6-hydroxyhexan-2-yl]-9a,11a-dimethylhexadecahydro-1H-cyclopenta[1,2-a]phenanthrene-6,7-diol] | 279 (≈ 150 µg/mL) | 0.11 | 1.91 | < 200
COc1cc(F)cc(F)c1C(O)CCC[C@@H](C)[C@H]1CC[C@H]2[C@H]3[C@H](CC[C@]12C)[C@@]1(C)CC[C@H](O)[C@H](O)[C@@H]1CC3(F)F (stereo partly drawn) [Compound 98, (1R,3aS,3bS,5aR,6R,7S,9aR,9bS,11aR)-1-[(2R)-6-(4,6-difluoro-2-methoxyphenyl)-6-hydroxyhexan-2-yl]-4,4-difluoro-9a,11a-dimethylhexadecahydro-1H-cyclopenta[1,2-a]phenanthrene-6,7-diol] | 199 (≈ 114 µg/mL) | 0.095 | 4.17 | < 200
COc1nc(F)ccc1C(O)CCC[C@@H](C)[C@H]1CC[C@H]2[C@H]3[C@H](CC[C@]12C)[C@@]1(C)CC[C@H](O)[C@H](O)[C@@H]1CC3(F)F (stereo partly drawn) [Compound 108, (1R,3aS,3bS,5aR,6R,7S,9aR,9bS,11aR)-4,4-difluoro-1-[(2R)-6-(6-fluoro-2-methoxypyridin-3-yl)-6-hydroxyhexan-2-yl]-9a,11a-dimethylhexadecahydro-1H-cyclopenta[1,2-a]phenanthrene-6,7-diol] | 303 (≈ 168 µg/mL) | 0.0359 | 3.08 | < 200
COc1cccc(F)c1[C@@H](O)CCC[C@@H](C)[C@H]1CC[C@H]2[C@H]3[C@H](CC[C@]12C)[C@@]1(C)CC[C@H](O)[C@H](O)[C@@H]1CC3(F)F [Compound 127, (1R,3aS,3bS,5aR,6R,7S,9aR,9bS,11aR)-4,4-difluoro-1-[(2R,6S)-6-(2-fluoro-6-methoxyphenyl)-6-hydroxyhexan-2-yl]-9a,11a-dimethylhexadecahydro-1H-cyclopenta[1,2-a]phenanthrene-6,7-diol] | 209 (≈ 116 µg/mL) | 0.07 | 1.87 | 200 to 500
COc1cccc(F)c1[C@H](O)CCC[C@@H](C)[C@H]1CC[C@H]2[C@H]3[C@H](CC[C@]12C)[C@@]1(C)CC[C@H](O)[C@H](O)[C@@H]1CC3(F)F [Compound 128, (1R,3aS,3bS,5aR,6R,7S,9aR,9bS,11aR)-4,4-difluoro-1-[(2R,6R)-6-(2-fluoro-6-methoxyphenyl)-6-hydroxyhexan-2-yl]-9a,11a-dimethylhexadecahydro-1H-cyclopenta[1,2-a]phenanthrene-6,7-diol] | 199 (≈ 110 µg/mL) | 0.139 | > 3.1 | 200 to 500
COc1cc(F)ccc1[C@@H](O)CCC[C@@H](C)[C@H]1CC[C@H]2[C@H]3[C@H](CC[C@]12C)[C@@]1(C)CC[C@H](O)[C@H](O)[C@@H]1CC3(F)F [Compound 140, (1R,3aS,3bS,5aR,6R,7S,9aR,9bS,11aR)-4,4-difluoro-1-[(2R,6S)-6-(4-fluoro-2-methoxyphenyl)-6-hydroxyhexan-2-yl]-9a,11a-dimethylhexadecahydro-1H-cyclopenta[1,2-a]phenanthrene-6,7-diol] | 178 (≈ 98.4 µg/mL) | 0.11 | 5.35 | < 200
COc1cc(F)ccc1[C@H](O)CCC[C@@H](C)[C@H]1CC[C@H]2[C@H]3[C@H](CC[C@]12C)[C@@]1(C)CC[C@H](O)[C@H](O)[C@@H]1CC3(F)F [Compound 141, (1R,3aS,3bS,5aR,6R,7S,9aR,9bS,11aR)-4,4-difluoro-1-[(2R,6R)-6-(4-fluoro-2-methoxyphenyl)-6-hydroxyhexan-2-yl]-9a,11a-dimethylhexadecahydro-1H-cyclopenta[1,2-a]phenanthrene-6,7-diol] | 150 (≈ 82.9 µg/mL) | 0.017 | 4.85 | < 200
